Laboratory results: patent US20230049619A1, “SIGMA-1 RECEPTOR LIGANDS AND USES THEREOF” (UNIVERSITE DE STRASBOURG, priority 2019, published 2023)

Columns and labels:
sigma-1 receptor = target: T1, sigma-1 receptor (Homo sapiens, UniProt Q99720); assay: sigma-1 receptor binding assay ([3H](+)-pentazocine displacement, Jurkat cell membranes); settings: [3H](+)-pentazocine 15 nM, 37° C., 2 hours
T1 construct: incubing Jurkat cell membranes ([…] protein per tube) with [^3H](+)-pentazocine; endogenous in cells; host or cells: Jurkat cell membranes
Experimental: The sigma-1 receptor binding assays were performed according to Ganapathy et al. (J Pharmacol Exp Ther 28:251-60, 1999). The sigma-1 receptor binding assay was carried out by incubing Jurkat cell membranes ([…] protein per tube) with [^3H](+)-pentazocine a selective sigma-1 radiotracer (15 nM) and a range of concentration of tested compounds, at 37° C. for 2 hours in 5 mM tris/HCl buffer (pH=7.4). The inhibition of [^3H](+)-pentazocine binding assay is mainly used to determine the inhibition constant (Ki) of potential sigma-1 receptor ligands. These assays are performed with a single concentration of [^3H](+)-pentazocine at a concentration near its KD and increasing concentrations of non-radioactive ligands.

T1 sequence (Q99720 whole entry): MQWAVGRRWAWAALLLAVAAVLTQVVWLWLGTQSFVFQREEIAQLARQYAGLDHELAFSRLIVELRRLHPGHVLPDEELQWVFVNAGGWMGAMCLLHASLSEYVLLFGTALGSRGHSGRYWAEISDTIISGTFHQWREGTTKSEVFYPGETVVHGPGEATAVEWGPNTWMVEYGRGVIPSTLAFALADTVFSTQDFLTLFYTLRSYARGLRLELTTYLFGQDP

An inhibition at 0.01 µM (sigma-1 receptor; tested compound 10 nM) of 86%, an inhibition at 0.1 µM (sigma-1 receptor; tested compound 100 nM) of 90% and a melting point of 144 °C were found for `Cl.O=c1c(-c2ccccc2)cncn1C1CCN(Cc2ccccc2)CC1` [cpd 43, 3-(1-benzylpiperidin-4-yl)-5-phenylpyrimidin-4(3H)-one hydrochloride] in this work.
